Broadly, the IC50 is the concentration that inhibits the measured activity by half. In general, melting point refers to the temperature, or range, at which the solid turns liquid.

Data set [1] has as its target T1, CDK2 (Homo sapiens, UniProt P24941).
T1 construct: purchased BPS Biosciences 79599
The conditions noted are these: read-out: CDK2 inhibitory activity IC50; cited from earlier work.

The subject of data set [2] is breast cancer. Details: method as in PMID 16392802. Particulars: cited from earlier work.

As for `O=C1Nc2ccccc2/C1=C1/Nc2ccccc2/C1=N\O` [indirubin-3′-oxime (IV), indirubin-3′-oxime], in data set [1], the IC50 was 440 nM.
For the compound `O=C(COc1ccccc1-c1nc2ccccc2s1)NN=C1C(=O)Nc2ccc([N+](=O)[O-])cc21` [Compound 9d, 2-(2-(Benzo[d]thiazol-2-yl)phenoxy)-N′-(5-nitro-2-oxoindolin-3-ylidene)acetohydrazide], the melting point is 275 to 277 °C.
Consider `COc1ccc(-c2nc3cc(F)ccc3s2)cc1OC` [GW 610 (VII), 2-(3,4-dimethoxyphenyl)-5-fluorobenzothiazole], for which, in data set [2], the “growth inhibitory activity in vitro” value was “sub-nanomolar”.
